Measured values published in patent publication US10654808B2, “Tyrosine kinase inhibitor and pharmaceutical composition comprising same” (GUANGDONG RAYNOVENT BIOTECH CO., LTD., priority 2015, dated 2020).

How the values were obtained:
Type in all cases: biochemical
VEGFR2 = biological target: T1, VEGFR2 (Homo sapiens, UniProt P35968); assay: Z'-LYTE in vitro enzyme activity assay, VEGFR2; settings: 100 μM ATP, 60 minutes, room temperature; read-out: IC50 detected by Z'-LYTE, VEGFR2
T1 construct: purchased Life technology
T1 sequence (P35968 20-1356): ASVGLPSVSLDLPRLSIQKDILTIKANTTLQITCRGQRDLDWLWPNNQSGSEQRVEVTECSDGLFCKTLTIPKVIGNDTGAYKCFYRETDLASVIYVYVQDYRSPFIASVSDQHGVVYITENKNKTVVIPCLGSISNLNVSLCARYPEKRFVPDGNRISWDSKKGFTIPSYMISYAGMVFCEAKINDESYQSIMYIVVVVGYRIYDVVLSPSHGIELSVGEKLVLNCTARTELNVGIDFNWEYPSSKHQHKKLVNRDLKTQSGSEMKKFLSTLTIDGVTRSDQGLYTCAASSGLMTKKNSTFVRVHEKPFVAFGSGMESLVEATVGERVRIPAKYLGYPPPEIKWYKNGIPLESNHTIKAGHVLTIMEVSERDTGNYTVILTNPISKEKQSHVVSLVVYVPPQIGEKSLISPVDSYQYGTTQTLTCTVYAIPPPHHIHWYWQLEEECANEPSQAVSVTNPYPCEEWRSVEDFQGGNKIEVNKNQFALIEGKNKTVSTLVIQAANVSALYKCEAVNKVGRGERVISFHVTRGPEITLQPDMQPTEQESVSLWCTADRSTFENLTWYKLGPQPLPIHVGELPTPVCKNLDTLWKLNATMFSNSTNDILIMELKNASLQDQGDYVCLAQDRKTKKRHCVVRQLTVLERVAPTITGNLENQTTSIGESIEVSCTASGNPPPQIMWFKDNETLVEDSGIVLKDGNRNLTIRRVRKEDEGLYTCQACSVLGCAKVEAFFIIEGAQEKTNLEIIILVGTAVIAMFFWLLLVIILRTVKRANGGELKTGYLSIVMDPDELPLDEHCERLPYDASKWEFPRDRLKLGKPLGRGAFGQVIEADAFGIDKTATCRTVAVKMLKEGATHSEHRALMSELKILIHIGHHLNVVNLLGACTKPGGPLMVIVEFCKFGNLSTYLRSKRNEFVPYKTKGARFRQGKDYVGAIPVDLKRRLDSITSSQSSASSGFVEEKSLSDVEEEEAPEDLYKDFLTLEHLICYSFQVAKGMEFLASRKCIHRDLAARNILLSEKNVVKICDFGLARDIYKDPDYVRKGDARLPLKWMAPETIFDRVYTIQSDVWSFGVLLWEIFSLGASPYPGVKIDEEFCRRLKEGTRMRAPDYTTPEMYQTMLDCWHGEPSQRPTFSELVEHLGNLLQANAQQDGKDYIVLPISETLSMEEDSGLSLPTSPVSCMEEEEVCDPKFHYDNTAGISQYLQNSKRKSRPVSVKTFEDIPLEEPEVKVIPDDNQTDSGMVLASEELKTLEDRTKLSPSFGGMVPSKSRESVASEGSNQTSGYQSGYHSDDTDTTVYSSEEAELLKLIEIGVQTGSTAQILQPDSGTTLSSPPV
Protocol: (§1) The enzyme activity was measured by Z′-LYTE™ Detection Kinase Assay. The IC50 value of the compounds was used as an index to evaluate the inhibitory effect of the compounds on VEGFR2, FGFR1 and PDGFRB.
(§2) Recombinant human VEGFR2 and FGFR1 proteases were purchased from Life technology, PDGFRB Protease was purchased from Millipore.
(§3) Z-LYTE™ Kit Tyr1 and Tyr4 were purchased from Life technology. Multi-microplate reader, Envision (PerkinElmer) read board was used.
(§4) The test compounds were diluted 3 times with a concentration gradient, the final concentration was from 10 μM to 0.17 nM with a total of 11 concentrations, and each concentration had two parallel holes; the content of DMSO in the assay was 1%.
3 nM VEGFR2 protein kinase, 2 μM Tyr1 peptide, 100 μM ATP, 50 mM HEPES (pH 7.5), 10 mM MgCl2, 1 mM EGTA, 0.01% BRIJ-35. The detector plate was Black Proxiplate 384-Plus plate (PerkinElmer), the reaction was performed at room temperature for 60 minutes, and the reaction system was 10 μl.
(§5) The reaction was stopped by adding 5 μl of DV reagent B (1:128) to the kinase reaction solution and incubated at 23° C. for 60 minutes. The Envision instrument was used to read the plate.
(§6) The data was converted to phosphorylation rate and inhibition rate and the 4 parameter curve fitting (Model 205 in XLFIT5, iDBS) was used to get IC50 data of the compounds.

FGFR1 = biological target: T2, FGFR1 (Homo sapiens, UniProt P11362); assay: Z'-LYTE in vitro enzyme activity assay, FGFR1; settings: 25 μM ATP, 60 minutes, room temperature; read-out: IC50 detected by Z'-LYTE, FGFR1
T2 construct: purchased Life technology
T2 sequence (P11362 22-822): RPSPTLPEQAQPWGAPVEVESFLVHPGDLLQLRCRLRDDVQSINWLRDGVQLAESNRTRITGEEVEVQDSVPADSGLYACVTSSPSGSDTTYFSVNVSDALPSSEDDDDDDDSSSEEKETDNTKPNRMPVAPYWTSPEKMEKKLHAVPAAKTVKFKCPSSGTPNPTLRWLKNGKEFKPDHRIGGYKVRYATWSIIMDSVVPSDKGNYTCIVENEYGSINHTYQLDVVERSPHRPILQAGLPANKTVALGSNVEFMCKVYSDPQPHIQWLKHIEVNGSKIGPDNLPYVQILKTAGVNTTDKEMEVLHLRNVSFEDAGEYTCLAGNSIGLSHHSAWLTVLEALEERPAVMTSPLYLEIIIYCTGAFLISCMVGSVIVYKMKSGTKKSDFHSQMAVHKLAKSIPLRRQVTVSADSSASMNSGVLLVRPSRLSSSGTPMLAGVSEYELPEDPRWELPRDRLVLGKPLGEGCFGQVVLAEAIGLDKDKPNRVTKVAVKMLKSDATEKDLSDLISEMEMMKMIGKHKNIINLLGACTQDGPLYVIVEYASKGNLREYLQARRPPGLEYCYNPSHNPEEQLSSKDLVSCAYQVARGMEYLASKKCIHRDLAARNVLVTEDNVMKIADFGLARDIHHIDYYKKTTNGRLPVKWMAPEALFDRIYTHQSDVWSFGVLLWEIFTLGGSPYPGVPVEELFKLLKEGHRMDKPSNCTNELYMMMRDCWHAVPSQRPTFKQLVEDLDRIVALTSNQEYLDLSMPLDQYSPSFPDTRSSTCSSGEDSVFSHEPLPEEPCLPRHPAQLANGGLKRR
Protocol: as §1, §2, §3, §4
(§7) 1 nM FGFR1 protein kinase, 2 μM Tyr4 peptide, 25 μM ATP, 50 mM HEPES (pH 7.5), 10 mM MgCl2, 1 mM EGTA, 0.01% BRIJ-35, 2 mM MnCl2, 1 mM DTT. The detector plate was Black Proxiplate 384-Plus plate (PerkinElmer), the reaction was performed at room temperature for 60 minutes, and the reaction system was 10 μl.
as §5, §6

PDGFRB = biological target: T3, PDGFRB (Homo sapiens, UniProt P09619); assay: Z'-LYTE in vitro enzyme activity assay, PDGFRB; settings: 100 μM ATP, 60 minutes, room temperature; read-out: IC50 detected by Z'-LYTE, PDGFRB
T3 construct: purchased Millipore
T3 sequence (P09619 33-1106): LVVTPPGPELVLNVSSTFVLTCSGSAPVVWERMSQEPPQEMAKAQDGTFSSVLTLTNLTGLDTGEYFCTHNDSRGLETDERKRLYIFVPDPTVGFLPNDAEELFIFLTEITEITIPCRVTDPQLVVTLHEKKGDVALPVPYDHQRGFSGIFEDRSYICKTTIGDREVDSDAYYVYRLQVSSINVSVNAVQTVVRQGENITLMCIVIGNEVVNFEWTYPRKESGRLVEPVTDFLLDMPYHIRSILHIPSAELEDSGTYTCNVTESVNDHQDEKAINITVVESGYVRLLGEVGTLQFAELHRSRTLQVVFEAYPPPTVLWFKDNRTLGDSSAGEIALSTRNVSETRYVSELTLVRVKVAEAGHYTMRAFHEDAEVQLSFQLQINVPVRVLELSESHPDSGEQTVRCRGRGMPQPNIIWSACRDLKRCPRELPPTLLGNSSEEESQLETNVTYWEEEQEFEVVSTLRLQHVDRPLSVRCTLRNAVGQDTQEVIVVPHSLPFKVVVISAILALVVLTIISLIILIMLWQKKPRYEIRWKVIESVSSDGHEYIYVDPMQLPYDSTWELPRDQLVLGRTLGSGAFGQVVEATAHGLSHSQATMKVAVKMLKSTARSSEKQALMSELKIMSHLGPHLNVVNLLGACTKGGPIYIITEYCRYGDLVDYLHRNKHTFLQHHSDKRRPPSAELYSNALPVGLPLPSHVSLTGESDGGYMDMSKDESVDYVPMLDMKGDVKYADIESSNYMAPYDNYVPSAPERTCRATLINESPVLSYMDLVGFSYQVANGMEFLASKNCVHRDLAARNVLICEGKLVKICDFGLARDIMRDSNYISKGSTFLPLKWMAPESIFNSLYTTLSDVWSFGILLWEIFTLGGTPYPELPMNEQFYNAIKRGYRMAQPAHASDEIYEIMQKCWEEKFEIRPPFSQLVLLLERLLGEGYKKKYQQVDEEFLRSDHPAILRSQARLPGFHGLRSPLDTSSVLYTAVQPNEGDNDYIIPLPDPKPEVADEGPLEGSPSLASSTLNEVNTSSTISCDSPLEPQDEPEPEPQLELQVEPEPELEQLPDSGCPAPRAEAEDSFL
Protocol: as §1, §2, §3, §4
as §7, with “40 nM PDGFRB” for “1 nM FGFR1”, “40 nM PDGFRB protein kinase,” for “1 nM FGFR1 protein kinase,”, “Tyr4 peptide, 100 μM ATP,” for “Tyr4 peptide, 25 μM ATP,”
as §5, §6

Row | SMILES | IC50 (VEGFR2) [nM] | IC50 (FGFR1) [nM] | IC50 (PDGFRB) [nM]
1 | COc1cc2nccc(Oc3ccc(NC(=O)N4CC[C@H](F)C4)c(Cl)c3F)c2cc1C(N)=O [Example 117] | 50 to 200 | 200 to 1000 | 50 to 200
2 | COc1cc2nccc(Oc3cc(Cl)c4c(C(=O)N5CC(F)(F)C5)coc4c3)c2cc1C(N)=O [Example 195] | 200 to 1000 | 200 to 1000 | 200 to 1000
3 | COc1cc2nccc(Oc3cc(F)c(NC(=S)N4CC(F)(F)C4)c(F)c3)c2cc1C(N)=O [Example 90] | 200 to 1000 | 50 to 200 | 200 to 1000
4 | COc1cc2nccc(Oc3ccc(NC(=S)NC4CC4)c(Cl)c3)c2cc1NC(C)=O [Example 182] | 50 to 200 | 200 to 1000 | 200 to 1000
5 | COc1cc2nccc(Oc3ccc(NC(=S)N4CC(F)(F)C4)c(Cl)c3)c2cc1NC(C)=O [Example 180] | 200 to 1000 | 200 to 1000 | 200 to 1000
6 | COc1cc2nccc(Oc3ccc4c(C(=O)N5CC[C@H](O)C5)coc4c3)c2cc1C(N)=O [Example 203] | 200 to 1000 | 200 to 1000 | 50 to 200
7 | COc1cc2nccc(Oc3ccc4c(C(=O)N5CCCC5)c[nH]c4c3)c2cc1C(N)=O [Example 188] | 200 to 1000 | 200 to 1000 | 200 to 1000
8 | COc1cc2nccc(Oc3ccc(NC(=O)N4CC[C@@H](F)C4)c(Cl)c3F)c2cc1C(N)=O [Example 113] | 200 to 1000 | 200 to 1000 | 200 to 1000
9 | COc1cc2nccc(Oc3ccc(NC(=S)NCCN4CCOCC4)c(Cl)c3)c2cc1C(N)=O [Example 19] | 200 to 1000 | 200 to 1000 | < 50
10 | COc1cc2nccc(Oc3ccc(NC(=S)N4CC[C@@H](F)C4)c(Cl)c3F)c2cc1C(N)=O [Example 108] | 50 to 200 | 50 to 200 | 200 to 1000
11 | NC(=O)c1ccn2ncc(Oc3ccc(NC(=O)NC4CC4)c(Cl)c3)c2c1 [Example 125] | 200 to 1000 | – | –
12 | COc1cc2nccc(Oc3cc4occ(C(=O)N5CC(F)(F)C5)c4cc3Cl)c2cc1C(N)=O [Example 198] | 200 to 1000 | 200 to 1000 | 200 to 1000
13 | Cc1c(OC[C@@H](C)O)cn2ncnc(Oc3ccc(NC(=O)NC4CC4)c(Cl)c3)c12 [Example 126] | < 50 | – | –
14 | COC[C@@H]1CCCN1NC(=S)Nc1ccc(Oc2ccnc3cc(OC)c(C(N)=O)cc23)c(F)c1Cl [Example 105] | 200 to 1000 | 200 to 1000 | 200 to 1000
15 | COc1cc2ncc(Cl)c(Oc3ccc(NC(=S)NC4CC4)c(Cl)c3)c2cc1C(N)=O [Example 84] | 200 to 1000 | 200 to 1000 | 200 to 1000
16 | CC1(C)NC(=O)c2cc3c(Oc4ccc(NC(=S)NC5CC5)c(Cl)c4)ccnc3cc2O1 [Example 172] | 200 to 1000 | 200 to 1000 | 200 to 1000
17 | COc1cc2nccc(Oc3ccc(NC(=S)NC4CC4)c(Cl)c3)c2cc1C(C)(C)O [Example 175] | 200 to 1000 | 200 to 1000 | 200 to 1000
18 | O=C(Nc1ccc(Oc2ccnc3cc(-c4cn(-c5ccccc5)cn4)ccc23)c(F)c1Cl)NC1CC1 [Example 228] | 200 to 1000 | 200 to 1000 | 200 to 1000
19 | COc1cc2nccc(Oc3ccc(NC(=S)N4CC(F)(F)C4)c(Cl)c3)c2cc1C(F)(F)F [Example 184] | 200 to 1000 | 200 to 1000 | 200 to 1000
20 | CCOP(=O)(Cc1ccc(Oc2ccnc3cc(OC)c(C(N)=O)cc23)cc1Cl)NC1CC1 (centres unmarked) [Example 132] | 200 to 1000 | – | –
21 | COc1cc2nccc(OCC3CC(NC(=O)NC4CC4)C3)c2cc1C(N)=O (centres unmarked) [Example 128] | 200 to 1000 | – | –
22 | COc1cc2nccc(OC3CC(NC(=O)NC4CC4)C3)c2cc1C(N)=O (centres unmarked) [Example 129] | 200 to 1000 | – | –

Results, then the compound that gave them:

Row | IC50 (VEGFR2) [nM] | IC50 (FGFR1) [nM] | IC50 (PDGFRB) [nM] | SMILES
23 | 200 to 1000 | 200 to 1000 | 200 to 1000 | COc1cc2nccc(Oc3ccc(Nc4c(NCC(C)C)c(=O)c4=O)c(Cl)c3)c2cc1C(N)=O [Example 144]
24 | 200 to 1000 | 200 to 1000 | 200 to 1000 | COc1cc2nccc(Oc3ccc4[nH]cc(C#N)c4c3)c2cc1C(N)=O [Example 162]
25 | 50 to 200 | 50 to 200 | 50 to 200 | COc1cc2nccc(Oc3ccc(NC(=S)N4CCC4)c(Cl)c3)c2cc1C(N)=O [Example 68]
26 | < 50 | 200 to 1000 | 50 to 200 | COc1cc2nccc(Oc3ccc(N4C(=O)CNC4=S)c(Cl)c3)c2cc1C(N)=O [Example 166]
27 | 50 to 200 | 200 to 1000 | 200 to 1000 | COc1cc2nccc(Oc3ccc(NC(=S)N4CCC(F)(F)CC4)c(Cl)c3)c2cc1C(N)=O [Example 67]
28 | 200 to 1000 | 200 to 1000 | < 50 | COc1cc2nccc(Oc3ccc(Nc4c(NCc5ccc(Cl)cc5)c(=O)c4=O)c(Cl)c3)c2cc1C(N)=O [Example 151]
29 | 200 to 1000 | 200 to 1000 | 200 to 1000 | COc1cc2nccc(Oc3ccc(NC(=S)NC4CCNC4=O)c(Cl)c3)c2cc1C(N)=O (centres unmarked) [Example 94]
30 | 200 to 1000 | 200 to 1000 | 200 to 1000 | COc1cc2nccc(Oc3ccc4nc(NCC(C)C)sc4c3)c2cc1C(N)=O [Example 156]
31 | < 50 | 200 to 1000 | 200 to 1000 | COc1cc2nccc(Oc3ccc4c(C(=O)NC5CC5)c[nH]c4c3)c2cc1C(N)=O [Example 186]
32 | 200 to 1000 | 200 to 1000 | 200 to 1000 | COc1cc2nccc(Oc3ccc(NC(=S)NCCC#N)c(Cl)c3)c2cc1C(N)=O [Example 18]
33 | 200 to 1000 | 200 to 1000 | 200 to 1000 | COc1cc2nccc(Oc3ccc4c(C(=O)N5CC[C@@H](F)C5)coc4c3)c2cc1C(N)=O [Example 202]
34 | 200 to 1000 | – | – | COc1cc2nccc(Oc3ccc(Nc4nc(=O)cc(C)[nH]4)c(Cl)c3)c2cc1C(N)=O [Example 135]
35 | 200 to 1000 | 200 to 1000 | 200 to 1000 | COc1cc2nccc(Oc3ccc(Nc4c(NC5CCOCC5)c(=O)c4=O)c(Cl)c3)c2cc1C(N)=O [Example 139]
36 | 200 to 1000 | 200 to 1000 | 50 to 200 | COc1cc2nccc(Oc3ccc(N4C(=O)CN(C)C4=S)c(Cl)c3)c2cc1C(N)=O [Example 81]
37 | < 50 | 50 to 200 | 50 to 200 | COc1cc2nccc(Oc3ccc(NC(=S)N4CC(F)(F)C4)c(Cl)c3)c2cc1C(N)=O [Example 35]
38 | 50 to 200 | 200 to 1000 | 50 to 200 | COc1cc(Oc2ccnc3cc(OC)c(C(N)=O)cc23)ccc1NC(=S)NC1CC1 [Example 72]
39 | 50 to 200 | 200 to 1000 | 200 to 1000 | COc1cc2nccc(Oc3ccc(NC(=S)Nc4cccc(C(F)(F)F)c4)c(Cl)c3)c2cc1C(N)=O [Example 7]
40 | 200 to 1000 | 200 to 1000 | 50 to 200 | COc1cc2nccc(Oc3ccc(NC(=S)NC4CCC(F)(F)CC4)c(Cl)c3)c2cc1C(N)=O [Example 61]
41 | 200 to 1000 | 200 to 1000 | 50 to 200 | COc1cc2nccc(Oc3ccc(NC(=S)NCCN(C)C)c(Cl)c3)c2cc1C(N)=O [Example 23]
42 | 200 to 1000 | 200 to 1000 | 50 to 200 | COc1cc2nccc(Oc3ccc(N4CC(=O)N(C)C4=S)c(Cl)c3)c2cc1C(N)=O [Example 82]
43 | 200 to 1000 | 200 to 1000 | 200 to 1000 | COc1cc2nccc(Oc3cc(Cl)c4c(C(=O)NC5CC5)coc4c3)c2cc1C(N)=O [Example 196]
44 | 200 to 1000 | 200 to 1000 | 200 to 1000 | COc1cc2nccc(Oc3ccc(NC(=S)NC4CC=C(F)CC4)c(Cl)c3)c2cc1C(N)=O (centres unmarked) [Example 60]
45 | 200 to 1000 | – | – | COc1cc2nccc(Oc3ccc(N/C(=C/[N+](=O)[O-])NC4CC4)c(Cl)c3)c2cc1C(N)=O [Example 134]
46 | 200 to 1000 | – | – | COc1cc2nccc(Oc3ccc(CP(=O)(O)NC4CC4)c(Cl)c3)c2cc1C(N)=O [Example 133]
47 | 200 to 1000 | – | – | COc1cc2nccc(Oc3ccc4oc(C(=O)N5CCCC5)cc4c3)c2cc1C(N)=O [Example 192]
48 | 200 to 1000 | – | – | COc1cc2nccc(Oc3ccc(-c4c[nH]c(C(C)C)n4)c(Cl)c3)c2cc1C(N)=O [Example 179]
49 | 200 to 1000 | – | – | COc1cc2nccc(Oc3ccc4nc(Nc5ccc(Cl)c(F)c5)sc4c3)c2cc1C(N)=O [Example 159]
